Experimental data reported in paper PMC10762035, “Molecular basis of human trace amine-associated receptor 1 activation” (Nature Communications, 2024).
Substitutions are numbered along the chain they refer to. Values joined by “and” are separate entries in the source; they are usually repeats but may differ in a detail not shown here. Equal values may be shown once. Read-outs that look alike come from different tables or passages of the source.

How the values were obtained:
Assay type in all cases: cell-based
hTA1 S107C = target: T1, hTA1 S107C (Homo sapiens, UniProt Q96RJ0, S107C); assay: GloSensor cAMP accumulation assay, S107C mutant; conditions: S107C;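 also: cells transiently co-expressing receptor and GloSensor biosensor, luminescence read after 30 min agonist exposure at room temperature, concentration-response fitted by nonlinear regression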
T1 construct: expressed in transfected cells; host or cells: HEK293T
T1 sequence (Q96RJ0 1-339 S107C): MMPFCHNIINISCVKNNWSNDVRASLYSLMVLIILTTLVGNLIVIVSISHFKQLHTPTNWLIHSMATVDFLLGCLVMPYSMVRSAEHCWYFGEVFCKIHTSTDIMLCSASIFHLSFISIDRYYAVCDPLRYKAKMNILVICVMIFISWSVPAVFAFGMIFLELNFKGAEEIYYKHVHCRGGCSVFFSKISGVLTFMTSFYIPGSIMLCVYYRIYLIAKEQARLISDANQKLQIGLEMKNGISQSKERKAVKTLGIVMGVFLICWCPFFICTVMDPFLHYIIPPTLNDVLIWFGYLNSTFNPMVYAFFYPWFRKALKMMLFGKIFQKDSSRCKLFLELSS

hTA1 b2N = target: T2, hTA1 b2N (Homo sapiens, UniProt Q96RJ0); assay: GloSensor cAMP accumulation assay, b2N construct; conditions: b2N, n=2
T2 construct: read by me as the first 25 residues of β2AR (N); expressed in transfected cells; host or cells: HEK293T

hTA1 C88S = target: T3, hTA1 C88S (Homo sapiens, UniProt Q96RJ0, C88S); assay: GloSensor cAMP accumulation assay, C88S mutant; conditions: for Normalized Luminescence Counts: C88S (N=2), log[Agonist]
T3 construct: expressed in transfected cells; host or cells: HEK293T
T3 sequence (Q96RJ0 1-339 C88S): T1 sequence (Q96RJ0 1-339 S107C) with C88S, C107S

hTA1 = target: T4, hTA1 (Homo sapiens, UniProt Q96RJ0); assay: GloSensor cAMP accumulation assay, concentration response, wild-type hTA1 in transfected HEK293T cells; conditions: for Emax: HEK-293T; for Dose-response curves for asenapine vs endogenous trace amines / Normalized Luminescence Counts for WT hTA1: log[Compound]; for Dose-response curves for asenapine vs endogenous trace amines: replicate values (N=2); for Normalized Luminescence Counts for WT hTA1: replicate wells;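 as to all read-outs here: luminescence read after 30 min compound exposure at room temperature in cells preloaded with D-Luciferin, reflecting Gs-driven cAMP rise, efficacy scaled to the maximal β-PEA response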
T4 construct: expressed in transfected cells; host or cells: HEK293T
T4 sequence (Q96RJ0 1-339): T1 sequence (Q96RJ0 1-339 S107C) with C107S

hTA1 V184P = target: T5, hTA1 V184P (Homo sapiens, UniProt Q96RJ0, V184P); assay: GloSensor cAMP accumulation assay, V184P mutant
T5 construct: expressed in transfected cells; host or cells: HEK293T
T5 sequence (Q96RJ0 1-339 V184P): T1 sequence (Q96RJ0 1-339 S107C) with C107S, V184P

T2 sequence (Q96RJ0 with tags, fused parts or gaps): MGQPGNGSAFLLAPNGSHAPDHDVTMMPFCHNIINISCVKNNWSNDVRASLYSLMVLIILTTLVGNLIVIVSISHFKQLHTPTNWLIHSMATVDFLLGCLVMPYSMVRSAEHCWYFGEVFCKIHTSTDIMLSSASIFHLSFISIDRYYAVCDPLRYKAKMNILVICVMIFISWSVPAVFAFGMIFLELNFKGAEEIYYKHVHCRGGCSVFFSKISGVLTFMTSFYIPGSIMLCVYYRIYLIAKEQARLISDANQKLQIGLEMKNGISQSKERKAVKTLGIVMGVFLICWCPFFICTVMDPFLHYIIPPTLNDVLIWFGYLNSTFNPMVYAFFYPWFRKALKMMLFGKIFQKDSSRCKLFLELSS

Emax values, Mean (hTA1 S107C; Asenapine, per experiment, 3 replicates): 91.6842 and 105.217
EC50 (hTA1 S107C; Asenapine, per experiment, 3 replicates, read-out: pEC50 values Mean (converted)): 383 nM and 996 nM
EC50 (hTA1 S107C; n=2, read-out: EC50): 618 nM
Emax (hTA1 S107C; n=2, read-out: Span ± SEM (Emax normalized to β-PEA)): 98.5 ± 6.76%
EC50 (hTA1 b2N; read-out: EC50): 72.8 nM
Emax (hTA1 b2N; read-out: Span ± SEM (Emax normalized to β-PEA)): 97.39 ± 0.96%
ΔpEC50 values (each mutant value - WT average), Mean (hTA1 C88S; C88S, Asenapine): -0.4947 and -0.3839
Emax values, Mean (hTA1 C88S; C88S, Asenapine, per experiment, 3 replicates): 126.964 and 89.044
EC50 (hTA1 C88S; C88S, Asenapine, per experiment, 3 replicates, read-out: pEC50 values Mean (converted)): 270 nM and 210 nM
EC50 (hTA1 C88S; C88S, n=2, read-out: EC50): 238 nM
Emax (hTA1 C88S; C88S, relative to β-PEA, read-out: Emax): 108%
Emax (hTA1; WT, Avg of the experiment means, read-out: Emax values, Avg): 88.7%
Emax (hTA1; WT, Mean of one experiment (3 replicates), read-out: Emax values): 91%
Emax (hTA1; wt hTA1, relative to β-PEA, read-out: Emax): 88.7%
Emax values, Avg (hTA1; WT, Asenapine, average of the two experiments): 88.71
Emax values, Mean (hTA1; WT, Asenapine, mean of one experiment, 3 replicates): 91.0389 and 86.3756
Emax values (hTA1; WT, Mean of one experiment (3 replicates)): 86.3756
EC50 (hTA1; WT, Mean of one experiment (3 replicates), read-out: pEC50 values (converted)): 279 nM
EC50 (hTA1; wt hTA1, HEK293T, n=3, read-out: EC50): 274 nM
EC50 (hTA1 V184P; V184P, n=2, read-out: EC50): 168 nM
Emax (hTA1 V184P; V184P, n=2, read-out: Span ± SEM (Emax normalized to β-PEA)): 88.3 ± 8.11%
Emax values, Mean (hTA1 V184P; V184S (so in the source), Asenapine, per experiment, 3 replicates): 96.3704 and 80.1474
EC50 (hTA1 V184P; V184S (so in the source), Asenapine, per experiment, 3 replicates, read-out: pEC50 values Mean (converted)): 246 nM and 114 nM
Compound: CN1CC2c3ccccc3Oc3ccc(Cl)cc3C2C1 (centres unmarked) [asenapine]
Normalized Luminescence Counts (hTA1 C88S; Asenapine, M -5): 78.2534 and 81.5764 and 79.8011 and 111.871 and 108.238 and 123.304
Normalized Luminescence Counts (hTA1 C88S; Asenapine, M -5.522): 94.436 and 87.9948 and 83.989 and 130.463 and 114.596 and 122.075
Normalized Luminescence Counts (hTA1 C88S; Asenapine, M -6): 79.8011 and 74.9077 and 70.7881 and 118.656 and 108.719 and 100.545
Normalized Luminescence Counts (hTA1 C88S; Asenapine, M -6.522): 57.5416 and 54.7649 and 49.5528 and 65.7127 and 60.6375 and 65.5525
Normalized Luminescence Counts (hTA1 C88S; Asenapine, M -7): 23.993 and 22.8778 and 24.6531 and 32.3228 and 28.1557 and 35.9556
Normalized Luminescence Counts (hTA1 C88S; Asenapine, M -7.522): 10.9969 and 9.859 and 9.563 and 7.801 and 8.763 and 9.724
Normalized Luminescence Counts (hTA1 C88S; Asenapine, M -8): 6.65 and 6.24 and 5.148 and 4.382 and 5.237 and 6.305
Dose-response curves for asenapine vs endogenous trace amines (hTA1; M = -5): 79.6771 and 96.2124 and 92.251 and 83.6538 and 87.8328 and 80.7895
Normalized Luminescence Counts for WT hTA1 (hTA1; M = -5): 83.6538 and 87.8328 and 80.7895 and 79.6771 and 96.2124 and 92.251
Dose-response curves for asenapine vs endogenous trace amines (hTA1; M = -5.522): 74.87 and 93.5418 and 84.1725 and 79.0052 and 76.9861 and 71.9618
Normalized Luminescence Counts for WT hTA1 (hTA1; M = -5.522): 79.0052 and 76.9861 and 71.9618 and 74.87 and 93.5418 and 84.1725
Dose-response curves for asenapine vs endogenous trace amines (hTA1; M = -6): 68.5274 and 68.3939 and 69.9517 and 72.9948 and 71.8209 and 62.9463
Normalized Luminescence Counts for WT hTA1 (hTA1; M = -6): 72.9948 and 71.8209 and 62.9463 and 68.5274 and 68.3939 and 69.9517
Dose-response curves for asenapine vs endogenous trace amines (hTA1; M = -6.522): 47.5189 and 49.5663 and 40.1525 and 38.2946 and 48.7657 and 45.4788
Normalized Luminescence Counts for WT hTA1 (hTA1; M = -6.522): 38.2946 and 48.7657 and 45.4788 and 47.5189 and 49.5663 and 40.1525
Dose-response curves for asenapine vs endogenous trace amines (hTA1; M = -7): 27.8234 and 34.8114 and 20.9244 and 18.9489 and 23.9262 and 21.7193
Normalized Luminescence Counts for WT hTA1 (hTA1; M = -7): 18.9489 and 23.9262 and 21.7193 and 27.8234 and 34.8114 and 20.9244
Dose-response curves for asenapine vs endogenous trace amines (hTA1; M = -7.522): 9.085 and 11.3326 and 6.214 and 4.299 and 6.271 and 7.5856
Normalized Luminescence Counts for WT hTA1 (hTA1; M = -7.522): 4.299 and 6.271 and 7.5856 and 9.085 and 11.3326 and 6.214
Dose-response curves for asenapine vs endogenous trace amines (hTA1; M = -8): 5.413 and 6.147 and 6.2585 and 3.876 and 4.862 and 2.139
Normalized Luminescence Counts for WT hTA1 (hTA1; M = -8): 3.876 and 4.862 and 2.139 and 5.413 and 6.147 and 6.2585
Dose-response curves for asenapine vs endogenous trace amines (hTA1; M = -8.522): 0.6725 and 1.273 and 1.229 and 1.059 and 0.777 and -0.209
Normalized Luminescence Counts for WT hTA1 (hTA1; M = -8.522): 1.059 and 0.777 and -0.209 and 0.6725 and 1.273 and 1.229
Dose-response curves for asenapine vs endogenous trace amines (hTA1; M = -9): -0.2399 and 0.5835 and -0.9298 and -0.4438 and -0.06817 and 0.0727
Normalized Luminescence Counts for WT hTA1 (hTA1; M = -9): -0.4438 and -0.06817 and 0.0727 and -0.2399 and 0.5835 and -0.9298
Dose-response curves for asenapine vs endogenous trace amines (hTA1; M = -9.522): -1.597 and -0.5292 and -1.353 and -0.209 and -0.5377 and 0.777
Normalized Luminescence Counts for WT hTA1 (hTA1; M = -9.522): -0.209 and -0.5377 and 0.777 and -1.597 and -0.5292 and -1.353
Dose-response curves for asenapine vs endogenous trace amines (hTA1; M = -10): -0.6182 and -0.1064 and -0.8408 and -0.7725 and -0.5377 and -0.6786
Normalized Luminescence Counts for WT hTA1 (hTA1; M = -10): -0.7725 and -0.5377 and -0.6786 and -0.6182 and -0.1064 and -0.8408
Dose-response curves for asenapine vs endogenous trace amines (hTA1; M = -10.522): -0.9521 and -0.1509 and -1.197 and -0.8195 and -1.665 and -1.101
Normalized Luminescence Counts for WT hTA1 (hTA1; M = -10.522): -0.8195 and -1.665 and -1.101 and -0.9521 and -0.1509 and -1.197
Dose-response curves for asenapine vs endogenous trace amines (hTA1; M = -11): -0.9075 and -0.3289 and -0.7295 and -0.3969 and 0.2136 and 0.9649
Normalized Luminescence Counts for WT hTA1 (hTA1; M = -11): -0.3969 and 0.2136 and 0.9649 and -0.9075 and -0.3289 and -0.7295
Dose-response curves for asenapine vs endogenous trace amines (hTA1; M = -11.522): -0.863 and -0.01735 and -1.531 and -0.9603 and -0.5377 and -0.4908
Normalized Luminescence Counts for WT hTA1 (hTA1; M = -11.522): -0.9603 and -0.5377 and -0.4908 and -0.863 and -0.01735 and -1.531
Dose-response curves for asenapine vs endogenous trace amines (hTA1; M = -12): -1.108 and -0.6405 and -1.286 and -1.101 and -0.6786 and -1.477
Normalized Luminescence Counts for WT hTA1 (hTA1; M = -12): -1.101 and -0.6786 and -1.477 and -1.108 and -0.6405 and -1.286
Dose-response curves for asenapine vs endogenous trace amines (hTA1; M = -12.522): -1.575 and -1.241 and -2.02 and -0.5377 and -1.054 and -1.242
Normalized Luminescence Counts for WT hTA1 (hTA1; M = -12.522): -0.5377 and -1.054 and -1.242 and -1.575 and -1.241 and -2.02
